Entries after “also recorded” stand apart in the source; their conditions may differ.

The text below walks through data of patent US10478505B2, “Edible oils to enhance delivery of orally administered steroids” (The Regents of the University of California, priority 2011, dated 2019).

A short description of data set [1]: Central nervous system effects of allopregnanolone in aqueous hydroxypropyl-beta-cyclodextrin solution. In kind it is in vivo.
For data set [2], the system named is NIH Swiss mice. Briefly: 6-Hz seizure test. In kind it is in vivo, mouse. To be noted: dissolved in canola oil (10 mg/ml), 200 mg/kg, 32 mA for 3 s. How it is done: (§1) Animals. Male NIH Swiss mice (22-30 g) were housed four per cage. Animals were kept in a vivarium under controlled laboratory conditions (temperature, 22-26° C.; humidity, 40-50%) with an artificial 12-h light/dark cycle and free access to food and water. Animals were allowed to acclimate to the vivarium for ≥5 days. The experiments were performed during the light phase of the light/dark cycle after a ≥30-min period of acclimation to the experimental room. Animals were maintained in facilities fully accredited by the Association for Assessment and Accreditation of Laboratory Animal Care, and all studies were performed under protocols approved by the University of California, Davis, Institutional Animal Care and Use Committee the Animal Care and Use in strict compliance with the Guide for the Care and Use of Laboratory Animals of the National Research Council (National Academy Press, Washington, D.C.; on the internet at nap.edu/readingroom/books/labrats/).
Test substances and drug administration. Solutions of allopreganolone (SAFC Pharma, Madison, Wis., U.S.A.) were made in miglyol (Neobee M5®, Spectrum Chemicals, Gardena, Calif.), canola oil (ConAgra Foods, Omaha, Nebr.) or peanut oil (Sigma-Aldrich, St. Louis, Mo.). […]
6-Hz seizure test. […] Animals were scored as protected or not protected. […]

The test system of data set [3] is NIH Swiss mice. The experiment in a line: PTZ seizure challenge (80 mg/kg PTZ s.c.). In kind it is in vivo, mouse. How it is done: (§2) NIH Swiss mice were fasted 2 hours prior to experiment participation. Allopregnanolone (ALP) was suspended in vehicle (Tween 80 or canola oil). The time point of maximal effect of ALP was established by gavaging ALP and scoring relevant behavioral parameters outlined in the Irwin Test. See, Sylvain Roux, et al., Current Protocols in Pharmacology, Unit Number: UNIT 10.10, DOI: 10.1002/0471141755.ph1010s27 Online Posting Date: January, 2005. Lethality, convulsion, tremor, Straub, abnormal gait, fear, sedation, reactivity to touch, loss of traction, loss of righting reflex were measured.
Anticonvulsant potential of ALP was determined with PTZ seizure challenge. Oral gavage various ALP concentrations at 50 μl/10 g body weight, t=−45 min or t=−90 min, 80 mg/kg PTZ s.c. at t=0. Observe 30 min for seizure protection (absence of clonic spasms).

The nature of data set [4]: Dissolution of allopregnanolone in oils. In kind it is physicochemical. Particulars: three oils: miglyol, canola oil, peanut oil. How it is done:
(§3) Test substances and drug administration. Solutions of allopreganolone (SAFC Pharma, Madison, Wis., U.S.A.) were made in miglyol (Neobee M5®, Spectrum Chemicals, Gardena, Calif.), canola oil (ConAgra Foods, Omaha, Nebr.) or peanut oil (Sigma-Aldrich, St. Louis, Mo.). The convulsant agent pentylenetetrazol (PTZ) (Sigma-Aldrich, St. Louis, Mo.) was dissolved in saline immediately before use and administered intravenously (i.v.). For the PTZ threshold test, allopregnanolone solutions were administered orally (p.o.) 30 min, 1 hr and 2 hr before PTZ infusion, in a volume equaling 10 ml/kg. For the 6-Hz seizure test, solutions of allopregnanolone in canola oil were administered in a volume equaling 20 ml/kg.

Data set [5] concerns NIH Swiss mice. The experiment in a line: PTZ seizure threshold test (intravenous PTZ infusion). In kind it is in vivo, mouse. To be noted: for anticonvulsant activity in the PTZ seizure threshold test (seizure threshold): 50 mg/kg (5 mg/ml) and 100 mg/kg (10 mg/ml). The protocol: as §1, §3
PTZ seizure threshold test. The threshold for various behavioral seizure stages induced by the GABA receptor antagonist PTZ, was determined by infusing PTZ via a 27-gauge, 0.75-inch “butterfly” needle inserted into the lateral tail vein. The needle was secured to the tail vein by a narrow piece of adhesive tape, and the animal was permitted to move freely inside an inverted plastic container with free aeration from the top. PTZ (10 mg/ml) were infused at a constant rate of 0.5 ml/min using a 1-ml syringe (BD Biosciences, Franklin Lakes, N.J.) mounted on a Harvard infusion pump (Harvard Apparatus Inc., Holliston, Mass.). The syringe was connected to the needle by polyethylene tubing. The infusion was stopped at 3 min or at the onset of tonic extension, whichever occurred first. The thresholds to the onset of tonic hindlimb extension were determined by measuring the latency from the start of convulsant infusion to the onset of all the response. The threshold value (milligrams per kilogram) was determined according to the following formula: (infusion duration [seconds]×infusion rate [milliliters per minute]×convulsant drug concentration [milligrams per milliliter]×1000)/(60 s×weight of mouse [grams]).

Data set [6] relates to NIH Swiss mice. The experiment in a line: Irwin Test behavioral scoring (sedation). In kind it is in vivo, mouse. To be noted: 250 mg/kg in canola oil, oral. The protocol:
as §2

The mark [7] stands for this setting: oral delivery in canola oil (FIG. 4).

With `CC(=O)[C@H]1CCC2C3CC[C@H]4C[C@H](O)CC[C@]4(C)C3CC[C@@]21C` (stereo in doubt) [allopregnanolone, 1-(3-Hydroxy-10,13-dimethyl-2,3,4,5,6,7,8,9,11,12,14,15,16,17-tetradecahydro-1H-cyclopenta[a]phenanthren-17-yl)ethanone], the entries for the “central nervous system effects” value in data set [1] (high doses administered orally in aqueous solution of hydroxypropyl-beta-cyclodextrin) and in data set [1] (parenteral administration as aqueous solution in hydroxypropyl-beta-cyclodextrin) were “failed to produce central nervous system effects” and “readily causes central nervous system effects”, respectively. For the same compound, the “activity in the 6-Hz seizure test” value with NIH Swiss mice [2] was “had activity”. In addition, in the data set on NIH Swiss mice [3] (250 mg/kg in canola oil, oral), the “anticonvulsant activity in the pentylenetetrazol seizure test” value was “anticonvulsant activity”. The same compound displayed an effective threshold dose with NIH Swiss mice [3] (setting [7]) of 25 to 75 mg/kg. In addition, the oral bioavailability result with NIH Swiss mice [3] (setting [7]) is reported as “markedly enhances”. In addition, the dissolution in oils result in data set [4] is recorded as “readily dissolve”. The “duration of anti-seizure activity” value in the data set with NIH Swiss mice [5] (dissolved in canola oil and peanut oil, oral route) was “long-lasting anti-seizure activity”. In addition, in the data set on NIH Swiss mice [5] (dissolved in canola oil or peanut oil, oral, 120 to 240 min after administration, in some cases), the “anti-seizure activity 120 to 240 min after administration” value is recorded as “activity was also present”. Also, the “anti-seizure activity 30 min after administration” value with NIH Swiss mice [5] (dissolved in canola oil or peanut oil, oral, 30 min after administration) is listed as “no or only minimal activity”. Further, the “anti-seizure activity 60 min after administration” value with NIH Swiss mice [5] (dissolved in canola oil or peanut oil, oral, 60 min after administration) is given as “strong activity”. For the same compound, the “anticonvulsant activity in the PTZ seizure threshold test (seizure threshold)” value is on record as “activity was obtained; also recorded: time-dependent increase in seizure threshold” in the data set with NIH Swiss mice [5] (dissolved in canola oil, orally administered) and “activity was obtained; also recorded: time-dependent increase in seizure threshold” in the data set with NIH Swiss mice [5] (dissolved in peanut oil, orally administered). Further, the “anticonvulsant activity in the PTZ seizure threshold test” value in the data set with NIH Swiss mice [5] (dissolved in miglyol, orally administered, 100 mg/kg) was “no bioactivity; also recorded: no activity; also recorded: inactive”. The sedation entry with NIH Swiss mice [6] is reported as “profound sedation”.
